The text below walks through data of US6531604B2, “Benzothiepine derivatives, their production and use” (Takeda Chemical Industries, Ltd., priority 1998, dated 2003).

This assay has as its system interstitial cells prepared from the femur bone marrow of a normal rat. As to the kind of experiment: Osteogenesis promoting effect: alkaline phosphatase activity in cultured rat bone marrow interstitial cells. The format is cell-based. To be noted: test compound 10^−5 M, added from 2nd day of culture, cultured additional 5 days; mean ± S.E. (n = 4); control 0.150 ± 0.009; ** p < 0.01 vs control. The protocol: Osteogenesis promoting effect:
Using the interstitial cells prepared from the femur bone marrow of a normal rat, an alkaline phosphatase activity was measured as an index of osteogenesis. Briefly, according to the method of Maniatopoulos et al. [Cell Tissue Research, volume 254, P.317 (1988)], the interstitial cells were prepared from the femur bone of a Sprague-Dawley male rat, 7 weeks of age, and cultured in an α-MEM (minimum essential medium) solution containing dexamethasone (10^−7M) and β-glycerophosphoric acid (10^−2M) in order to generate calcified bony tissue. One week later, the confluent primary cells were treated with 0.25% trypsin-0.2% EDTA solution, recovered, and subcultured on a culture plate at a cell density of […], (culture day 0). From the 2nd day of the culture, a test compound (10^−5 M) was added to the above culture solution, and cultured for additional 5 days. The cells were washed with a phosphate buffer, and after addition of 0.2% Nonidet P-40, they were homogenized and centrifuged at 3,000 rpm for 10 minutes. The supernatant was measured for an alkaline phosphatase activity according to the method of Lowry et al. [Journal of Biological Chemistry, volume 207, P.19 (1954)]. […] Statistical analysis was performed by means of the Student's t-test.

Consider `C[C@@H]1S[C@@H](C(=O)Nc2ccc(CC3SC(=O)NC3=O)cc2)Cc2cc3c(cc2C1=O)OCO3` (stereo partly drawn) [Example no. 1, (2R,4S)-N-[4-(2,4-Dioxothiazolidin-5-yl-methyl)phenyl]-1,2,4,5-tetrahydro-7,8-methylenedioxy-4-methyl-5-oxo-3-benzothiepine-2-carboxamide], for which the “Alkaline phosphatase activity (A405)” value is given as 0.489 ± 0.050** A405. Under `C[C@@H]1S[C@@H](C(=O)Nc2ccc(CN3CCOCC3)cc2)Cc2cc3c(cc2C1=O)OCO3` [Example no. 4, (2R,4S)-N-[4-(4-Morpholinylmethyl)phenyl]-1,2,4,5-tetrahydro-7,8-methylenedioxy-4-methyl-5-oxo-3-benzothiepine-2-carboxamide] stands 0.394 ± 0.036** A405; under `C[C@@H]1S[C@@H](C(=O)Nc2ccc(CC3OC(=O)NC3=O)cc2)Cc2cc3c(cc2C1=O)OCO3` (stereo partly drawn) [Example no. 10, (2R,4S)-N-[4-(2,4-Dioxo-oxazolidin-5-yl-methyl)phenyl]-1,2,4,5-tetrahydro-7,8-methylenedioxy-4-methyl-5-oxo-3-benzothiepine-2-carboxamide], 0.535 ± 0.069** A405. The result for `C[C@@H]1S[C@@H](C(=O)Nc2ccc(Cn3oc(=O)[nH]c3=O)cc2)Cc2cc3c(cc2C1=O)OCO3` [Example no. 11, (2R,4S)-N-[4-(3,5-Dioxo-1,2,4-oxadiazolidin-2-ylmethyl)phenyl]-1,2,4,5-tetrahydro-7,8-methylenedioxy-4-methyl-5-oxo-3-benzothiepine-2-carboxamide] reads 0.399 ± 0.069** A405.
